We go through 1 compound from patent US20230382915A1, “GCN2 AND PERK KINASE INHIBITORS AND METHODS OF USE THEREOF” (Deciphera Pharmaceuticals, LLC, priority 2021, published 2023).

The subject of test [1] is MV-4-11 xenograft. Description: MV-4-11 xenograft efficacy model. The format is in vivo, mice. As to conditions: 14 days of dosing. The procedure: The MV-4-11 xenograft model was performed in compliance with all the laws, regulations and guidelines of the National Institutes of Health (NIH) and with the approval of the Animal Care and Use Committee of Crown Bioscience (Taicang, China), an AAALAC accredited facility. Food and water was provided ad libitum. […] Female NOD/SCID (6-9 weeks old; Vital River Laboratories Research Models and Services (Beijing, China)) were inoculated subcutaneously right front flank region with five million cells in Dulbecco's Phosphate Buffered Saline:Matrigel (1:1), using a 27-gauge needle and syringe. When tumor burdens reached 150 mm 3 on average on day 7, mice were randomly assigned into groups such that the mean tumor burden for all groups was within 10% of the overall mean tumor burden for the study population. Groups were treated on days 7-21 as follows: vehicle control (dosed orally and IP to mimic combination groups) (n=10); Compound 2 dosed orally at 50 mg/kg/day of Compound 2 (n=10); Leunase (Kyowa Kirin, Japan) dosed IP at 1000 U/kg/day (n=10); Leunase (Kyowa Kirin, Japan) dosed IP at 1000 U/kg/day (n=10) and Compound 2 dosed orally at 50 mg/kg/day of Compound 2 (n=10). Tumor volume and body weight were measured three time per week. Tumor burden (mg) was estimated from caliper measurements by the formula: tumor burden (mg=mm 3)=(length×width 2)/2.

Test [2] concerns H358 solid tumor spheroids. The experiment in a line: Spheroid proliferation assay, H358. The class given is cell-based. The protocol: Non Small Cell Lung Cancer (NSCLC) cell lines H358 (catalog #CRL-5807) and H2030 (catalog #CRL-5914), and fibrosarcoma line HT-1080 (catalog […]) were obtained from the American Type Culture Collect (ATTC, Manassas, VA). Cells were grown in RPMI-1640 medium supplemented with 10% heat-inactivated fetal bovine serum and 1% Penicillin/Streptomycin/L-Glutamine (Invitrogen, Carlsbad, CA) at 37° C., 5% CO2, and 95% humidity and maintained at 50-80% confluency until use. 500-1000 cells were plated in 96-well ultra-low attachment plates (Corning, Glendale, AZ) with complete growth media at 80 μL/well and incubated overnight at 37° C., 5% CO2, and 95% humidity to form spheroids. The next day, serial dilutions of test compounds were prepared in complete growth media and 20 μL/well media containing compound titers was added to spheroids in triplicate. Spheroids were then incubated with test compounds for 5 days under the same conditions. At the end of the incubation, spheroids were lysed with 100 μL/well CellTiter-Glo 3D Viability Assay (Promega, Madison, WI) and luminescence was detected using Synergy2 or equivalent reader (Biotek, Winooski, VT). Data was analyzed using GraphPad Prism software (GraphPad, San Diego, CA) to calculate IC50 values.

In test [3] the test system is ATF4 levels in CCRF-CEM leukemia xenograft. Description: CCRF-CEM xenograft PK/PD model. The class given is in vivo, mice. The following applies: Mus musculus, po, in combination with ASNase, 2, 6, 10 h post dose, read-out: inhibition of ATF4 levels compared to vehicle control. The protocol:
The CCRF-CEM xenograft model was performed in compliance with all the laws, regulations and guidelines of the National Institutes of Health (NIH) and with the approval of the Animal Care and Use Committee of Labcorp (Ann Arbor, MI), an AAALAC accredited facility. Food and water was provided ad libitum. […] Female Envigo C.B-17 SCID (6-7 weeks old) were inoculated subcutaneously just below the right high axilla with ten million cells in Dulbecco's Phosphate Buffered Saline, using a 27-gauge needle and syringe. When tumor burdens reached 200 mm 3 on average on day 22, mice were randomly assigned into groups such that the mean tumor burden for all groups was within 10% of the overall mean tumor burden for the study population. Groups were treated on days 23-24 as follows: on day 23 vehicle control (dosed orally and IP to mimic combination groups) (n=9); ASNase (Abcam, Cambridge, UK) dosed IP at 1000 U/kg/day (n=9). […] Protein concentrations were determined using BCA protein assay kit (Thermo Fisher Scientific, Waltham, MA). […] Samples were resolved using SDS-PAGE then analyzed using Western blot to quantify phospho-GCN2 (Thr899) (Abcam, Cambridge, UK), total GCN2, ATF4 and beta-Actin (Cell Signaling Technology, Danvers, MA). […] Data is analyzed using GraphPad Prism software (GraphPad, San Diego, CA) to calculate % inhibition.

Regarding `Cn1cc(-c2cccc(NS(=O)(=O)c3cc(Cl)cc(CO)c3Cl)c2F)c2c(N)ncnc21` [Example 2, N-(3-(4-amino-7-methyl-7H-pyrrolo[2,3-d]pyrimidin-5-yl)-2-fluorophenyl)-2,5-dichloro-3-(hydroxymethyl)benzenesulfonamide], the “mean tumor growth inhibition” value in test [1] (50 mg/kg/day combined with Leunase) was 54%. In test [1] (50 mg/kg/day orally), the “effect on tumor growth, single agent” value was “no significant effect on tumor growth”. Moreover, the IC50 in test [2] (Homo sapiens, NCI-H358, 120 h, 5 days, FIG. 11B, read-out: inhibition of cell proliferation IC50, single agent) amounted to 10 nM. For the same compound, the “spheroid growth, combination treatment” value in test [2] (with 3.3 nM sotorasib, 96 h, FIG. 12B) is given as “greater spheroid regression compared to either single agent”. Moreover, in test [3] (25 mg/kg orally), the inhibition – broadly, the change of the read-out against control, counted positive when it falls – at 25 mg/kg lay within 57 to 93%. Moreover, the inhibition at 50 mg/kg in test [3] (50 mg/kg orally) lay in the range of 87 to 91%.
